This passage reports NTEL results from patent publication US20080194614A1, “Combination of Organic Compounds” (priority 2005, published 2008).

A short description of series [1]: 4-week toxicity study in rats. Format: in vivo. How it is done: (§1) Rapamycin or derivatives thereof are well tolerated at dosages required for use in accordance with the present invention. For example, the NTEL for Compound A in a 4-week toxicity study is 0.5 mg/kg/day in rats and 1.5 mg/kg/day in monkeys.
A short description of series [2]: 4-week toxicity study in monkeys. In kind it is in vivo. How it is done:
as §1

Consider `CO[C@H]1C[C@@H]2CC[C@@H](C)[C@@](O)(O2)C(=O)C(=O)N2CCCC[C@H]2C(=O)O[C@H]([C@H](C)C[C@@H]2CC[C@@H](OCCO)[C@H](OC)C2)CC(=O)[C@H](C)/C=C(\C)[C@@H](O)[C@@H](OC)C(=O)[C@H](C)C[C@H](C)/C=C/C=C/C=C/1C` [Compound A, 40-0-(2-hydroxyethyl)-rapamycin], for which the NTEL in series [1] worked out at 0.5 mg/kg/day; in series [2], 1.5 mg/kg/day.
